Source: US9573913B2, “Cathepsin cysteine protease inhibitors” (Merck Sharp & Dohme Corp., priority 2013, dated 2017)

Key:
human cathepsin K = human cathepsin K (UniProt P43236); experiment: Cathepsin K Assay (hrbCat K); format: biochemical; conditions: Z-Leu-Arg-AMC substrate, pH 5.5, 15 min preincubation; read-out: hrbCat K (IP (nM))
Experimental: Cathepsin K Assay (hrbCat K)
(§1) Then 0.5 μL of DMSO from each dilution were added to 18.75 μL of assay buffer (MES, 50 mM (pH 5.5); EDTA, 2.5 mM; DTT, 2.5 mM and 10% DMSO) containing human cathepsin K (0.4 nM) in assay buffer solution. The assay solutions were mixed for 5-10 seconds on a shaker plate and incubated for 15 minutes at room temperature. Z-Leu-Arg-AMC (8 μM) in 6.25 μL of assay buffer was added to the assay solutions. Hydrolysis of the coumarin leaving group (AMC) was followed by spectrofluorometry (Exλ=360 nm; Emλ=460 nm) for 30 minutes. Percent of inhibition were calculated by fitting experimental values to standard mathematical model for dose response curve.

human cathepsin F = target: T1, human cathepsin F (Homo sapiens, UniProt Q9UBX1); experiment: Cathepsin F assay (hCat F); format: biochemical; conditions: Z-Phe-Arg-AMC substrate, pH 5.5, 15 min preincubation; read-out: hCat F (IP (nM))
T1 sequence (Q9UBX1 271-484): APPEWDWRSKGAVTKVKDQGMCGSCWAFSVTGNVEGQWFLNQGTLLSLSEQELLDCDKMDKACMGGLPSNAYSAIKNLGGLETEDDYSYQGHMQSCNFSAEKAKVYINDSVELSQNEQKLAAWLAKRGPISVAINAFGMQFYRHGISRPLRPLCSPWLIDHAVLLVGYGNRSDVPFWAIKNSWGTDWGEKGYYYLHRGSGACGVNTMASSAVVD
Experimental: Cathepsin F assay (hCat F)
as §1, with “Serial dilutions (1/3) from 500 μM down to 0.025 μM of test compounds were prepared in dimethyl sulfoxide (DMSO). Then” for “Then”, “F (10” for “K (0.4”, “Z-Phe-Arg-AMC” for “Z-Leu-Arg-AMC”, “20” for “30”

CC(Oc1ncccc1-c1nc([C@@H]2CCCC[C@H]2C(=O)NC2(C#N)CC2)c(-c2ccc(N3CCS(=O)(=O)CC3)cc2)s1)C(F)(F)F (mixture of isomers) [Example 134, (1R,2R)-N-(1-cyanocyclopropyl)-2-(5-(4-(1,1-dioxidothiomorpho-lino)phenyl)-2-(2-(((S and R)-1,1,1-trifluoropropan-2-yl)oxy)pyridin-3-yl)thiazol-4-yl)cyclohexane-carboxamide]
IC50 (human cathepsin K): 2.8 nM
IC50 (human cathepsin F): 3330 nM

CC(Oc1ccc(-c2nc([C@@H]3CCCC[C@H]3C(=O)NC3(C#N)CC3)c(-c3ccc(N4CCS(=O)(=O)CC4)cc3)s2)cn1)C(F)(F)F (mixture of isomers) [Example 137, (1R,2R)-N-(1-cyanocyclopropyl)-2-(5-(4-(1,1-dioxidothiomorpho-lino)phenyl)-2-(6-(((S and R)-1,1,1-trifluoropropan-2-yl)oxy)pyridin-3-yl)thiazol-4-yl)cyclohexane-carboxamide]
IC50 (human cathepsin K): 1.2 nM
IC50 (human cathepsin F): 3330 nM

N#CC1(NC(=O)[C@@H]2CCCC[C@H]2c2nc(C3CCOC3)sc2-c2ccc(N3CCS(=O)(=O)CC3)cc2)CC1 (mixture of isomers) [Example 147, (1R,2R)-N-(1-cyanocyclopropyl)-2-(5-(4-(1,1-dioxidothiomorpho-lino)phenyl)-2-((R and S)-tetrahydrofuran-3-yl)thiazol-4-yl)cyclohexane-carboxamide]
IC50 (human cathepsin K): 4.5 nM
IC50 (human cathepsin F): 1000 nM

N#CC1(NC(=O)[C@@H]2CCCC[C@H]2c2nc(C3CCCCO3)sc2-c2ccc(N3CCS(=O)(=O)CC3)cc2)CC1 (mixture of isomers) [Example 148, (1R,2R)-N-(1-cyanocyclopropyl)-2-(5-(4-(1,1-dioxidothiomorpho-lino)phenyl)-2-((R and S)-tetrahydro-2H-pyran-2-yl)thiazol-4-yl)cyclohexane-carboxamide]
IC50 (human cathepsin K): 2.6 nM
IC50 (human cathepsin F): 1930 nM

N#CC1(NC(=O)[C@@H]2CCCC[C@H]2c2nc(C3CCC(F)(F)C3)sc2-c2ccc(N3CCS(=O)(=O)CC3)cc2)CC1 (mixture of isomers) [Example 154, (1R,2R)-N-(1-cyanocyclopropyl)-2-(2-((R and S)-3,3-difluorocyclopentyl)-5-(4-(1,1-dioxidothiomorpho-lino)phenyl)thiazol-4-yl)cyclohexane-carboxamide]
IC50 (human cathepsin K): 4.5 nM
IC50 (human cathepsin F): 1000 nM

CS(=O)(=O)c1ccc(-c2oc(-c3ccccc3)nc2C2CCC(F)(F)CC2C(=O)NCC#N)cc1 (racemic) [Example 162, (1R,2R and 1S,2S)-N-(cyanomethyl)-5,5-difluoro-2-(5-(4-(methylsulfonyl)phenyl)-2-phenyloxazol-4-yl)cyclohexane-carboxamide]
IC50 (human cathepsin K): 2.7 nM
IC50 (human cathepsin F): 49 nM

CS(=O)(=O)c1ccc(-c2oc(-c3ccc(F)cc3)nc2C2CCC(F)(F)CC2C(=O)NCC#N)cc1 (racemic) [Example 163, (1R,2R and 1S,2S)-N-(cyanomethyl)-5,5-difluoro-2-(2-(4-fluorophenyl)-5-(4-(methylsulfonyl)phenyl)oxazol-4-yl)cyclohexane-carboxamide]
IC50 (human cathepsin K): 2.9 nM
IC50 (human cathepsin F): 26 nM

N#CC(NC(=O)[C@@H]1CCCC[C@H]1c1nc(-c2ccc(F)cn2)sc1-c1ccc(N2CCS(=O)(=O)CC2)cc1)C(F)(F)F (mixture of isomers) [Example 215, (1R,2R)-N-((S and R)-1-cyano-2,2,2-trifluoroethyl)-2-(5-(4-(1,1-dioxidothiomorpho-lino)phenyl)-2-(5-fluoropyridin-2-yl)thiazol-4-yl)cyclohexane-carboxamide]
IC50 (human cathepsin K): 2.4 nM
IC50 (human cathepsin F): 60 nM

N#CC1(NC(=O)[C@@H]2CCCC[C@H]2c2nc(C(O)C(F)(F)F)sc2-c2ccc(N3CCS(=O)(=O)CC3)cc2)CC1 (mixture of isomers) [Example 228, (1R,2R)-N-(1-cyanocyclopropyl)-2-(5-(4-(1,1-dioxidothiomorpho-lino)phenyl)-2-((R and S)-2,2,2-trifluoro-1-hydroxyethyl)thia-zol-4-yl)cyclohexane-carboxamide]
IC50 (human cathepsin K): 5.1 nM
IC50 (human cathepsin F): 5390 nM

C[C@@H](C#N)NC(=O)[C@@H]1CCCC[C@H]1c1nc(C(O)C(F)(F)F)sc1-c1ccc(N2CCS(=O)(=O)CC2)cc1 (mixture of isomers) [Example 229, (1R,2R)-N-((S)-1-cyanoethyl)-2-(5-(4-(1,1-dioxidothiomorpho-lino)phenyl)-2-((R and S)-2,2,2-trifluoro-1-hydroxyethyl)thia-zol-4-yl)cyclohexane-carboxamide]
IC50 (human cathepsin K): 2.6 nM
IC50 (human cathepsin F): 757 nM

Cc1nc(C2CCCCC2C(=O)NCC#N)c(-c2ccc(N3CCS(=O)(=O)CC3)cc2)s1 (racemic) [Example 245, N-(cyanomethyl)-2-(5-(4-(1,1-dioxidothiomorpho-lino)phenyl)-2-methylthiazol-4-yl)cyclohexane-carboxamide]
IC50 (human cathepsin K): 5.4 nM
IC50 (human cathepsin F): 3280 nM

Cc1nc(C2CCCCC2C(=O)NCC#N)c(-c2ccc(C(=O)N3CCOCC3)cc2)s1 (racemic) [Example 246, N-(cyanomethyl)-2-(2-methyl-5-(4-(morpholine-4-carbonyl)phenyl)thi-azol-4-yl)cyclohexane-carboxamide]
IC50 (human cathepsin K): 38.2 nM
IC50 (human cathepsin F): > 10000 nM

CC1CC1(C#N)NC(=O)[C@@H]1CCCC[C@H]1c1nc(-c2ccc(F)cn2)sc1-c1ccc(N2CCS(=O)(=O)CC2)cc1 (single isomer, unassigned) [Example 203, (1R,2R)-N-((1R,2S or 1R,2R or 1S,2S or 1S,2R)-1-cyano-2-methylcyclopropyl)-2-(5-(4-(1,1-dioxidothiomorpho-lino)phenyl)-2-(5-fluoropyridin-2-yl)thiazol-4-yl)cyclohexane-carboxamide]
IC50 (human cathepsin K): 161 nM

CC(C)(O)C(C#N)NC(=O)[C@@H]1CCCC[C@H]1c1nc(-c2ccc(F)cn2)sc1-c1ccc(N2CCS(=O)(=O)CC2)cc1 (single isomer, unassigned) [Example 226, (1R,2R)-N-((S or R)-1-cyano-2-hydroxy-2-methylpropyl)-2-(5-(4-(1,1-dioxidothiomorpho-lino)phenyl)-2-(5-fluoropyridin-2-yl)thiazol-4-yl)cyclohexane-carboxamide]
IC50 (human cathepsin F): ≥ 10000 nM

CC(C)(O)C(C#N)NC(=O)[C@@H]1CCCC[C@H]1c1nc(-c2ccc(F)cn2)sc1-c1ccc(N2CCS(=O)(=O)CC2)cc1 (single isomer, unassigned) [Example 227, (1R,2R)-N-((R or S)-1-cyano-2-hydroxy-2-methylpropyl)-2-(5-(4-(1,1-dioxidothiomorpho-lino)phenyl)-2-(5-fluoropyridin-2-yl)thiazol-4-yl)cyclohexane-carboxamide]
IC50 (human cathepsin K): 59.5 nM

N#CC1(NC(=O)[C@@H]2C[C@@H](F)CC[C@H]2c2nc(C3CC(F)C3)sc2-c2ccc(N3CCS(=O)(=O)CC3)cc2)CC1 (single isomer, unassigned) [Example 235, (1R,2R,5S)-N-(1-cyanocyclopropyl)-2-(5-(4-(1,1-dioxidothiomorpho-lino)phenyl)-2-((1R,3R or 1S,3S)-3-fluorocyclobutyl)thiazol-4-yl)-5-fluorocyclohexane-carboxamide]
IC50 (human cathepsin K): 4.2 nM

Cc1ncc(-c2nc([C@@H]3CCCC[C@H]3C(=O)NC3(C#N)CC3)c(-c3ccc(N4CCS(=O)(=O)CC4)cc3)s2)s1 [Example 52, (1R,2R)-N-(1-cyanocyclopropyl)-2-(5-(4-(1,1-dioxidothiomorpho-lino)phenyl)-2′-methyl-[2,5′-bithiazol]-4-yl)cyclohexane-carboxamide]
IC50 (human cathepsin K): 2.3 nM

N#CC1(NC(=O)[C@@H]2CCC(F)(F)C[C@H]2c2nc(-c3cncc(F)c3)sc2-c2ccc(N3CCS(=O)(=O)CC3)cc2)CC1 [Example 108, (1R,2R)-N-(1-cyanocyclopropyl)-2-(5-(4-(1,1-dioxidothiomorpho-lino)phenyl)-2-(5-fluoropyridin-3-yl)thiazol-4-yl)-4,4-difluorocyclohexane-carboxamide]
IC50 (human cathepsin K): 1.7 nM

CC(C)(C#N)NC(=O)[C@@H]1C[C@@H](F)CC[C@H]1c1nc(-c2ccc(F)cn2)sc1-c1ccc(N2CCS(=O)(=O)CC2)cc1 [Example 140, (1R,2R,5S)-N-(2-cyanopropan-2-yl)-2-(5-(4-(1,1-dioxidothiomorpho-lino)phenyl)-2-(5-fluoropyridin-2-yl)thiazol-4-yl)-5-fluorocyclohexane-carboxamide]
IC50 (human cathepsin K): 66.7 nM

N#CC1(NC(=O)[C@@H]2CCC(F)(F)C[C@H]2c2nc(-c3cncc(F)c3)sc2-c2ccc(N3CCS(=O)(=O)CC3)cc2)CC1 [Example 218, (1R,2R)-N-(1-cyanocyclopropyl)-2-(5-(4-(1,1-dioxidothiomorpho-lino)phenyl)-2-(5-fluoropyridin-3-yl)thiazol-4-yl)-4,4-difluorocyclohexane-carboxamide]
IC50 (human cathepsin K): 4.2 nM
